# Measured values as given in ChEMBL document CHEMBL1148617, “Design, synthesis, and structure-activity relationships of 1-,3-,8-, and 9-substituted-9-deazaxanthines at the human A2B adenosine receptor” (J Med Chem, 2006).
# pKi: −log10 of the molar value.
# Experiments:
# Adenosine receptor A2a [1] = molecular target: T1, Adenosine receptor A2a (Homo sapiens, UniProt P29274)
# Description: Binding affinity to recombinant human adenosine A2A receptor
# Adenosine receptor A2a [2] = molecular target: T1, Adenosine receptor A2a; test: Displacement of [3H]ZM-241385 from recombinant human adenosine A2A receptor expressed in HeLa cells at 0.1 uM
# Adenosine receptor A2b = molecular target: T2, Adenosine receptor A2b (Homo sapiens, UniProt P29275)
# T2 sequence (P29275 whole entry): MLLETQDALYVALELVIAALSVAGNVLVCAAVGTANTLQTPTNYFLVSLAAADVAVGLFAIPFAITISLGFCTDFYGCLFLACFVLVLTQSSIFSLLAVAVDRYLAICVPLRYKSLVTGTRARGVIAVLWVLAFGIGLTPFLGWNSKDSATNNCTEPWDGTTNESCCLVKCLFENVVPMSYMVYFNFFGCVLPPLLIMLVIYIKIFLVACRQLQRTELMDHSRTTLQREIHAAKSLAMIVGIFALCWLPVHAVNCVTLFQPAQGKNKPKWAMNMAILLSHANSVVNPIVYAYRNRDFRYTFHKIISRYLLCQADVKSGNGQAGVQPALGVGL
# Description: Binding affinity to recombinant human adenosine A2B receptor
# [3] = molecular target: T3, Adenosine receptor A2b (Homo sapiens) (UniProt P29275); test: Displacement of [3H]DPCPX from recombinant human adenosine A2B receptor expressed in HEK293 cells at 0.1 uM; type: cell-based
# T3 sequence (whole entry): T2 sequence (P29275 whole entry)
# [4] = molecular target: T3, Adenosine receptor A2b (Homo sapiens); test: Displacement of [3H]DPCPX from recombinant human adenosine A2B receptor expressed in HEK293 cells at 0.01 uM
# T1 sequence (P29274 whole entry): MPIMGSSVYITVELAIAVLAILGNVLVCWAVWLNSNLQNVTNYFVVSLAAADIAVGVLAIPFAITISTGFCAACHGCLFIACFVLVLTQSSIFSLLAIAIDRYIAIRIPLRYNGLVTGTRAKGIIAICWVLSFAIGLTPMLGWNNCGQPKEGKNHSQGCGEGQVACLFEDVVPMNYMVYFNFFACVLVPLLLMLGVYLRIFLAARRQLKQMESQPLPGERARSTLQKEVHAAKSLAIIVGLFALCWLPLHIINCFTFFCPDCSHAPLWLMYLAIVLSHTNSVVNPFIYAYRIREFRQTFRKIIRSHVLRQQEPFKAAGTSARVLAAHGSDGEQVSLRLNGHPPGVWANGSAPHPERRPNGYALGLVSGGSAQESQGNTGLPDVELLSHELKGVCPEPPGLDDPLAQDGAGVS
SMILES,pKi (Adenosine receptor A2a [1]),inhibition (Adenosine receptor A2a [2]),pKi (Adenosine receptor A2b),inhibition [3],inhibition [4]
CCCn1c(=O)c2[nH]c(-c3ccc(OC(C)C(=O)Nc4ccc(F)cc4)cc3)cc2n(CCC)c1=O (centres undefined),7.23,51%,8.49,88%,62%
CCCn1c(=O)c2[nH]c(-c3ccc(OCC(=O)NCc4ccncc4)cc3)cc2n(CCC)c1=O,6.52,18%,7.55,76%,21%
CCn1c(=O)c2[nH]c(-c3ccc(OCC(=O)Nc4ccccc4)cc3)cc2n(CC)c1=O,6.73,22%,8.11,91%,45%
CCCn1c(=O)c2[nH]c(-c3ccc(OCC(=O)Nc4ccc(OCc5ccccc5)cc4)cc3)cc2n(CCC)c1=O,7.73,60%,8.05,76%,49%
CCCn1c(=O)c2[nH]c(-c3ccc(OCC(=O)Nc4ccccc4)cc3)cc2n(C)c1=O,6.77,18%,7.91,91%,38%
Cn1c(=O)c2[nH]c(-c3ccc(OCC(=O)NCc4ccc(F)cc4)cc3)cc2n(C)c1=O,7.36,56%,7.77,95%,36%
CCCn1c(=O)c2[nH]c(-c3ccc(OC(C)(C)C(=O)Nc4ccccc4)cc3)cc2n(CCC)c1=O,7.27,57%,8.10,93%,51%

# Second part, the molecule after the results:
pKi (Adenosine receptor A2a [1]),inhibition (Adenosine receptor A2a [2]),pKi (Adenosine receptor A2b),inhibition [3],inhibition [4],SMILES
6.05,17%,7.37,59%,15%,CCN(Cc1ccccc1)C(=O)COc1ccc(-c2cc3c([nH]2)c(=O)n(C)c(=O)n3C)cc1
6.58,23%,7.08,44%,5%,CCCn1c(=O)c2[nH]c(-c3ccc(OCC(=O)Nc4ccccc4Cl)cc3)c(Cl)c2n(CCC)c1=O
7.00,30%,7.25,57%,6%,CCCn1c(=O)c2[nH]c(-c3ccc(OCC(=O)Nc4ccc(C(=O)OCC)cc4)cc3)cc2n(CCC)c1=O
7.69,75%,8.31,93%,61%,Cn1c(=O)c2[nH]c(-c3ccc(OCC(=O)NCc4ccc(Cl)cc4)cc3)cc2n(C)c1=O
7.40,46%,7.95,86%,34%,CCCn1c(=O)c2[nH]c(-c3ccc(OCC(=O)Nc4ccc(CC#N)cc4)cc3)cc2n(CCC)c1=O
6.62,10%,7.22,58%,32%,CCCn1c(=O)c2[nH]c(-c3ccc(OCC(=O)Nc4ccc(CC(=O)OCC)cc4)cc3)cc2n(CCC)c1=O
7.50,61%,8.50,95%,58%,CCCn1c(=O)c2[nH]c(-c3ccc(OCC(=O)Nc4ccc(Cl)cc4)cc3)cc2n(CCC)c1=O
6.50,13%,7.15,52%,10%,Cn1c(=O)c2[nH]c(-c3ccc(OCC(=O)NCc4ccco4)cc3)cc2n(C)c1=O
5.58,9%,7.93,88%,12%,CCCn1c(=O)c2[nH]c(-c3ccc(OCC(=O)Nc4ccc(C(=O)OCC)cc4)cc3)cc2n(C)c1=O
6.61,13%,7.56,63%,20%,CC(NC(=O)COc1ccc(-c2cc3c([nH]2)c(=O)n(C)c(=O)n3C)cc1)c1ccccc1 (centres undefined)
5.39,21%,7.36,63%,–,CCCn1c(=O)c2[nH]c(-c3ccc(OCC(=O)O)cc3)cc2n(C)c1=O
